Bridge positions count the residues as written; N and C are the ends. Square brackets hold non-standard residues; d marks the D form. Peptide text beside a SMILES is read from it. d2Nal = N[C@H](Cc1ccc2ccccc2c1)C(=O)O

This is an account of results in BindingDB's records for doi:10.1172/JCI119225 (Cedars-Sinai Research Institute, 1997).

Assay [1] deals with Somatostatin receptor type 3 (Homo sapiens, UniProt P32745).
The target of assay [2] is Somatostatin receptor type 5 (Homo sapiens, UniProt P35346).
Sequence of Somatostatin receptor type 5 (P35346 whole entry): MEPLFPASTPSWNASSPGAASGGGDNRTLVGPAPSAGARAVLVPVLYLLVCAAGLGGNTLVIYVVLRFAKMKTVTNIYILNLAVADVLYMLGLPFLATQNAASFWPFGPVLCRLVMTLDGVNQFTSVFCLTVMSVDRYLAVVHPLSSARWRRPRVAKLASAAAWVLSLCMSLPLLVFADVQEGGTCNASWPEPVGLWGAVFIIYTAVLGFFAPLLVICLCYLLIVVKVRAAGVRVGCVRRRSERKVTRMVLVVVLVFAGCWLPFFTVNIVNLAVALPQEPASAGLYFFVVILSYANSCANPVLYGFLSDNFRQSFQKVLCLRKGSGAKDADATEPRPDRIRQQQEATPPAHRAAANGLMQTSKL
In assay [3] the target is Somatostatin receptor type 2 (Homo sapiens, UniProt P30874).
Sequence of Somatostatin receptor type 2 (P30874 whole entry): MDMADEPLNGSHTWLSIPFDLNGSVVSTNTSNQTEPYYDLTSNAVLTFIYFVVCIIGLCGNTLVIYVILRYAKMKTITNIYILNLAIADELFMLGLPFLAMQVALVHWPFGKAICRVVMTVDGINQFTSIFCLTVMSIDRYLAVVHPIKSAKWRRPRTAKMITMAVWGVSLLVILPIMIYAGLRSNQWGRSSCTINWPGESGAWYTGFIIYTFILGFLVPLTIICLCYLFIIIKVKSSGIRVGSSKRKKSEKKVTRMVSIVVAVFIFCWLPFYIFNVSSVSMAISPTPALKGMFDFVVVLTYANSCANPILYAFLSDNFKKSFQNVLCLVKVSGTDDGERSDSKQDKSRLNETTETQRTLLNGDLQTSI
The target in assay [4] is Somatostatin receptor type 4 (Homo sapiens, UniProt P31391).
Sequence of Somatostatin receptor type 4 (P31391 whole entry): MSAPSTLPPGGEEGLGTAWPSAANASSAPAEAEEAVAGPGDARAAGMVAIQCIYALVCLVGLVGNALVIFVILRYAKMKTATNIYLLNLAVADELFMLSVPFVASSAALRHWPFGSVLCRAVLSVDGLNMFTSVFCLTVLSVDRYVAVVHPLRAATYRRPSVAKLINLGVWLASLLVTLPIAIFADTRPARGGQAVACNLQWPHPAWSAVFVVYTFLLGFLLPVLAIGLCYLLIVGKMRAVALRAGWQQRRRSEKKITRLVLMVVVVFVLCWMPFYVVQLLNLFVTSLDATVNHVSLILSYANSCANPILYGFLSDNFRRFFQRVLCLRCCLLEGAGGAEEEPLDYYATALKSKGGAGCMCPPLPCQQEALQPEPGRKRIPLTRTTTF

Sequence of Somatostatin receptor type 3 (P32745 whole entry): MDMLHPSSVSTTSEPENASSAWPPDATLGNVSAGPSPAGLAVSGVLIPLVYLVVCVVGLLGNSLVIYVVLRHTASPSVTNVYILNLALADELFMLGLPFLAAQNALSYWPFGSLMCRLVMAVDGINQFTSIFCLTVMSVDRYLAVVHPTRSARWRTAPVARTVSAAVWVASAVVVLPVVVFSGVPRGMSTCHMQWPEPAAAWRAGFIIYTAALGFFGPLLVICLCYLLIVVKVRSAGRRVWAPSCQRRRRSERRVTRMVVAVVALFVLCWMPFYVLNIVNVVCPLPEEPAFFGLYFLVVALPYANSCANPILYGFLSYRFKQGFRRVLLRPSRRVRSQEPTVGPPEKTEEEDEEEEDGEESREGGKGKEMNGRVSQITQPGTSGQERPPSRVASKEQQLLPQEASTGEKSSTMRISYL

`CC(C)[C@@H]1NC(=O)[C@H](CCCCN)NC(=O)[C@@H](Cc2c[nH]c3ccccc23)NC(=O)[C@H](Cc2ccc(O)cc2)NC(=O)[C@@H](NC(=O)[C@H](N)Cc2ccc3ccccc3c2)CSSC[C@@H](C(=O)N[C@H](C(N)=O)[C@@H](C)O)NC1=O` [3-(2-Naphtyl)-D-Ala-L-Cys(1)-L-Tyr-D-Trp-L-Lys-L-Val-L-Cys(1)-L-Thr-NH2] had an IC50 in assay [1] of 0.107 µM.

As to `CC(C)[C@H](NC(=O)[C@H](CCCCN)NC(=O)[C@@H](Cc1c[nH]c2ccccc12)NC(=O)[C@H](Cc1ccc(O)cc1)NC(=O)[C@H](Cc1ccccc1)NC(=O)[C@H](N)Cc1ccccc1)C(=O)N[C@@H](Cc1ccccc1)C(=O)N[C@H](Cc1ccc2ccccc2c1)C(N)=O` [CAS_150155-61-6] (H-[dF]FY[dW]KVF[d2Nal]-NH2), the IC50 in assay [2] worked out at 0.0121 µM; in assay [1], 0.177 µM; in assay [3], 0.132 µM; in assay [4] it was 0.234 µM.

Regarding `CC[C@@H]1NC(=O)[C@H](CCCCN)NC(=O)[C@@H](Cc2c[nH]c3ccccc23)NC(=O)[C@H](Cc2ccc(O)cc2)NC(=O)[C@@H](NC(=O)[C@@H](Cc2ccccc2)NC(=O)CN2CCN(CCO)CC2)CSSC[C@@H](C(=O)N[C@H](C(N)=O)[C@@H](C)O)NC1=O` [BIM-23190], in assay [4], the IC50 came to 1 µM.

On to `C[C@@H](O)[C@H](NC(=O)[C@H](Cc1ccccc1)NC(=O)[C@@H](NC(=O)[C@H](CCCCN)NC(=O)[C@@H](Cc1c[nH]c2ccccc12)NC(=O)[C@H](Cc1ccccc1)NC(=O)[C@H](Cc1ccccc1)NC(=O)[C@H](N)Cc1ccccc1)[C@@H](C)O)C(N)=O` [CAS_133073-82-2] (H-[dF]FF[dW]KTFT-NH2), for which, in assay [4], half-maximal inhibition (IC50) required 0.132 µM.

Turning to `C[C@@H](O)[C@@H]1NC(=O)[C@H](CCCCN)NC(=O)[C@@H](Cc2c[nH]c3ccccc23)NC(=O)[C@H](Cc2ccccc2)NC(=O)[C@H](Cc2ccccc2)NC(=O)[C@H](N)CSSC[C@H](C(N)=O)NC(=O)[C@H](Cc2ccccc2)NC1=O` (H-[dC]FF[dW]KTF[dC]-NH2; disulfide 1-8), the IC50 was 0.00037 µM in assay [2], 0.0616 µM in assay [1] and 0.0151 µM in assay [3].

In turn, `CC[C@@H]1NC(=O)[C@H](CCCCN)NC(=O)[C@@H](Cc2c[nH]c3ccccc23)NC(=O)[C@H](Cc2ccc(O)cc2)NC(=O)[C@@H](NC(=O)[C@H](N)Cc2ccccc2)CSSC[C@@H](C(=O)N[C@H](C(N)=O)[C@@H](C)O)NC1=O` [D-Phe-L-Cys(1)-L-Tyr-D-Trp-L-Lys-L-Abu-L-Cys(1)-L-Thr-NH2] showed an IC50 in assay [1] of 0.089 µM.

The term IC50 denotes the midpoint of a concentration-inhibition curve. A high value points to weaker potency in that assay.
